# Reference: PubChem BioAssay (NCI)
# Several values for one entry are separate records, joined by “and”; a condition that tells them apart may be missing. Equal entries are not always repeated.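 All cell lines were grown in 96-well plates and treated with compound for 48 hours. At the GI50, growth is halved. TGI: total growth inhibition.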
# Key:
# Experiment in all cases: DTP human tumour cell line panel, 48 h
# CAKI-1 renal = tested on: CAKI-1 renal
# COLO 205 colon = tested on: COLO 205 colon
# HOP-62 NSCLC = tested on: HOP-62 NSCLC
# HOP-92 NSCLC = tested on: HOP-92 NSCLC
# IGROV1 ovarian = tested on: IGROV1 ovarian
# MALME-3M melanoma = tested on: MALME-3M melanoma
# OVCAR-5 ovarian = tested on: OVCAR-5 ovarian
# SN12C renal = tested on: SN12C renal
# TK-10 renal = tested on: TK-10 renal
# UACC-257 melanoma = tested on: UACC-257 melanoma
Compound,TGI (CAKI-1 renal),TGI (COLO 205 colon),TGI (HOP-62 NSCLC),TGI (HOP-92 NSCLC),TGI (IGROV1 ovarian),TGI (MALME-3M melanoma),TGI (OVCAR-5 ovarian),TGI (SN12C renal),TGI (TK-10 renal),TGI (UACC-257 melanoma),GI50 (CAKI-1 renal),GI50 (COLO 205 colon),GI50 (HOP-62 NSCLC),GI50 (HOP-92 NSCLC),GI50 (IGROV1 ovarian),GI50 (MALME-3M melanoma),GI50 (OVCAR-5 ovarian),GI50 (SN12C renal),GI50 (TK-10 renal),GI50 (UACC-257 melanoma)
COC(=O)c1cc2c(=O)n(C)c3ccccc3n2c1C(=O)OC,> 100 µM,> 100 µM,36.9 µM,> 100 µM,> 100 µM,> 100 µM,> 100 µM,> 100 µM,77.4 µM,> 100 µM,,,,,,,,,,
Oc1ccc(C=Nc2ccccc2O)cc1,> 100 µM,91.7 µM,> 100 µM,> 100 µM,> 100 µM,,> 100 µM,> 100 µM,> 100 µM,65.3 µM,,,,,,,,,,
CNC(=O)c1c(C)oc2cc(Oc3ncnc4cc(OC)c(OC)cc34)ccc12,> 100 µM,> 100 µM,> 100 µM,> 100 µM,> 100 µM,> 100 µM,> 100 µM,> 100 µM,> 100 µM,> 100 µM,> 100 µM,> 100 µM,> 100 µM,3.2 µM,> 100 µM,> 100 µM,> 100 µM,> 100 µM,> 100 µM,> 100 µM
C=C[C@@H](C)[C@]1(C(=O)OC)CCCC12OCCO2,> 100 µM,> 100 µM,> 100 µM,> 100 µM,> 100 µM,> 100 µM,> 100 µM,> 100 µM,> 100 µM,> 100 µM,,,,,,,,,,
COc1c/c(=C2\C=c3ccccc3=N2)[nH]/c1=C\c1[nH]c(C)cc1C,0.109 µM,13.6 µM,6.87 µM,1.97 µM,17.7 µM,,> 56.5 µM,59.5 µM,36.7 µM,32.7 µM,< 0.0103 µM,0.0155 µM,0.468 µM,0.111 µM,0.102 µM,0.0328 µM,0.25 µM,0.0782 µM,0.106 µM,0.628 µM
Cc1cnc2ccc(C)c([N+](=O)[O-])c2c1NCCCN(C)C,> 100 µM,> 100 µM,> 100 µM,,,> 100 µM,> 100 µM,> 100 µM,> 100 µM,> 100 µM,,,,,,,,,,
CC[C@H](C)[C@H](NC(=O)[C@H]1CCCCN1C)C(=O)N(C)[C@H](C[C@@H](OC(C)=O)c1cccc(C(=O)N[C@@H](Cc2ccccc2)C[C@H](C)C(=O)OC)n1)C(C)C,,0.0132 µM and 0.00446 µM,> 25 µM,,> 25 µM,,> 25 µM,> 25 µM,> 25 µM,,,0.00182 µM and 0.0025 µM,0.0065 µM and 0.00427 µM,0.000632 µM and 0.0025 µM,0.000812 µM and 0.00506 µM,,0.0137 µM,0.00567 µM and 0.0113 µM,,
Cc1c(C)n(CCCN2CCN(C)CC2)c2ccc(Oc3cccc(C(=O)N4CCN(CCc5ccc(F)cc5)CC4)c3)cc12,3.46 µM,3.8 µM,3.34 µM,,3.16 µM,3.32 µM,3 µM,3.09 µM,3.23 µM,3.72 µM,1.77 µM,1.97 µM,1.63 µM,,1.57 µM,1.78 µM,1.58 µM,1.54 µM,1.62 µM,1.88 µM
COc1ccc(/C=C\c2cc(OC)c(OC)c(OC)c2)cc1OCC(=O)Nc1nc2ccc(F)cc2s1,> 100 µM,> 100 µM,> 100 µM,> 100 µM,> 100 µM,> 100 µM,> 100 µM,> 100 µM,> 100 µM,> 100 µM,2.78 µM,7.78 µM,5.7 µM,5.73 µM,4.17 µM,5.22 µM,> 100 µM,4.61 µM,9.89 µM,8.69 µM
N#C/C(=C\c1cc(O)cc(O)c1)C(N)=O,> 100 µM,> 100 µM,> 100 µM,> 100 µM,> 100 µM,> 100 µM,> 100 µM,> 100 µM,> 100 µM,> 100 µM,,,,,,,,,,
Cc1cc2nc(NCCN)n(Cc3ccc(F)c(Cl)c3)c2cc1C,25.4 µM,3.38 µM,28.5 µM,14.3 µM,27.5 µM,4.19 µM,28.3 µM,29.8 µM,31.2 µM,,12.7 µM,1.68 µM,14.2 µM,2.35 µM,11.7 µM,1.83 µM,13.7 µM,15.1 µM,16.9 µM,
Clc1c(Cl)[n+](Cc2ccc3ccccc3c2)cn1Cc1ccc2ccccc2c1,,2.57 µM,2.61 µM,2.14 µM,2.93 µM,3.15 µM,3.32 µM,2.99 µM,3.11 µM,3.51 µM,,1.13 µM,1.26 µM,0.733 µM,1.33 µM,1.4 µM,1.54 µM,1.53 µM,1.58 µM,1.74 µM
COC(=O)[C@@H]1c2cc3c(c(O)c2[C@@H](OC2OC(C)C(OC)C(C)(OC)C2OC)C[C@]1(C)O)C(=O)c1c(O)cc2c(c1C3=O)O[C@H]1O[C@]2(C)[C@H](O)[C@@H](N(C)C)[C@@H]1O (stereo partly drawn),,0.0351 µM,0.328 µM and 0.0435 µM,0.0546 µM and 0.418 µM,0.65 µM and 4.74 µM,0.0666 µM and 0.0545 µM,,2 µM,,0.0638 µM and 0.0472 µM,,,,,,,0.0651 µM,,0.0386 µM,0.0123 µM
O=C(O)c1cc(-c2ccc3cc4c(cc3c2)OCO4)nc2ccccc12,,> 100 µM,> 100 µM,87.9 µM,> 100 µM,> 100 µM,> 100 µM,> 100 µM,> 100 µM,35.4 µM,,,,,,,,,,
CC1(C)OC2C(CCP(=O)(O)O)OC(c3nc(C(N)=O)cs3)C2O1 (stereo not drawn),> 100 µM,> 100 µM,,> 100 µM,> 100 µM,> 100 µM,> 100 µM,> 100 µM,> 100 µM,> 100 µM,,,,,,,,,,
CC(C)(C)C1=CC(=C(P(=O)(O)O)P(=O)(O)O)C=C(C(C)(C)C)C1=O,> 50 µM,,> 50 µM,> 50 µM,> 50 µM,> 50 µM,> 50 µM,,> 50 µM,> 50 µM,,,,,,,,,,
